Results reported in ChEMBL document CHEMBL3120132, “Antiviral compounds for the treatment of HCV” (ACS Med Chem Lett, 2014).
pIC50: −log10 of the molar value.

The molecules below were run on Hepatitis C virus (assay: Antiviral activity against Hepatitis C virus Con1 genotype 1b expressing NS3 infected in human 2209-23 cells assessed as inhibition of viral replication after 72 hrs by luciferase reporter gene assay). Conditions: isolate Con1, 2209-23, 72 h.
Format: functional, organism-based, Hepacivirus hominis

Row | pIC50 | Structure (SMILES)
1 | 10.26 | CCOC(=O)[C@@H]1C[C@H](NC(=O)c2ccc3ccccc3c2O)CN1CC(C)C
2 | 10.28 | CCOC(=O)[C@@H]1C[C@H](NC(=O)c2ccc3ccccc3c2O)CN1CC1CCC1
3 | 10.54 | CCOC(=O)[C@@H]1C[C@H](NC(=O)c2ccc3ccccc3c2O)CN1CC1CCCC1
4 | 10.10 | COC(=O)[C@@H]1C[C@H](NC(=O)c2ccc3ccccc3c2O)CN1Cc1ccccc1
5 | 10.29 | COC(=O)[C@@H]1C[C@H](NC(=O)c2ccc3ccccc3c2O)CN1CCC(C)(C)C
6 | 10.33 | COC(=O)[C@@H]1C[C@H](NC(=O)c2ccc3ccccc3c2O)CN1CC1CCCCC1
